Data on six compounds can be found in patent publication US4743619A, “Method of treating hepatitis” (American Home Products Corporation, priority 1986, dated 1988).

Molecules are shown by their SMILES.

The assay addresses T1, polymerase of hepatitis B virus (Hepatitis B virus genotype D subtype ayw, UniProt P03156).
T1 construct: the Dane particles were isolated from HBV-infected human blood; from tissue; host or cells: Dane particles (HBV virions) isolated from HBV-infected human blood
Description: in vitro endogenous DNA polymerase assay (Dane particles, radioactive nucleotide incorporation into viral DNA). The class given is biochemical. Conditions: for inhibition at 0.01 µg/mL: 0.01 μg/ml; for inhibition at 0.01 µg/mL / inhibition at 0.1 µg/mL: 37° C., 2 hours, Dane particle DNA polymerase; for inhibition at 0.1 µg/mL: 0.1 μg/ml; for inhibition of the polymerase of hepatitis B virus (in words): according to the endogenous DNA polymerase procedure. As to the method: Ten microliters of Dane particles were incubated at 37° C. for 2 hours in 100 μl containing 0.5% NP40, 0.07% BME, 66 mM Tris HCl (pH 7.6) 27 mM MgCl2, 0.40 mM NH4 Cl, 0.3 mM dATP, dGTP, and dTTP and 4 picomoles α^32 P-dCTP. The appropriate tubes also contained either 0.1 μg/ml or 0.01 μg/ml of the rifamycin derivatives (a), (b), (c), (d), or (e). The quantity of incorporation of radioactive nucleotides into viral DNA was determined by trichloroacetic acid precipitation as described by Landers et al., J. Virol. 23: 368-376, 1977. The control DNA polymerase reaction contained more than 20,000 cpm.

T1 sequence (P03156 whole entry): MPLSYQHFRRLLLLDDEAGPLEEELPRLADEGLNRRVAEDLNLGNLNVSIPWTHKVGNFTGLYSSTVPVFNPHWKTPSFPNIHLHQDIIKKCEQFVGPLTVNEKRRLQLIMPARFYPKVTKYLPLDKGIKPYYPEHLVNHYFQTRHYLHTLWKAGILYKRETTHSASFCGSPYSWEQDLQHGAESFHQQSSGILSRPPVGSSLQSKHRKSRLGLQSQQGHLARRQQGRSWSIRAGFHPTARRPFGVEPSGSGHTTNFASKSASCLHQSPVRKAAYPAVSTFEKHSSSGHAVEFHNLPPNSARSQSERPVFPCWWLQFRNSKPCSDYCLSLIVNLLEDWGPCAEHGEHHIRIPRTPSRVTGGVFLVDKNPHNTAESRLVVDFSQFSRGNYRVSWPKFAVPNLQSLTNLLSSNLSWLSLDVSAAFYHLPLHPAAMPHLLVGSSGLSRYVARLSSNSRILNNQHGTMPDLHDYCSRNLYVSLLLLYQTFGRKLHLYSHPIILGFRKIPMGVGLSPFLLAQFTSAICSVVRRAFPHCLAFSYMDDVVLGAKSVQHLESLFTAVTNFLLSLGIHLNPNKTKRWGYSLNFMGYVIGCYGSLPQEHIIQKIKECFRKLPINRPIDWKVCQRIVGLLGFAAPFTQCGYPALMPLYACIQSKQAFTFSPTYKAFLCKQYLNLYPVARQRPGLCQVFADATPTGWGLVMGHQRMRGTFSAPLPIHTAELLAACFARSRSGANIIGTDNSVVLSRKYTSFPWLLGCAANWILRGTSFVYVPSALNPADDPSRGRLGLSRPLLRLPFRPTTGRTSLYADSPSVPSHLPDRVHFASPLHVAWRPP

Turning to `COC1C=COC2(C)Oc3c(C)c(O)c4c(O)c(c5c(c4c3C2=O)N(S(C)(=O)=O)C(C)N5)NC(=O)C(C)=CC=CC(C)C(O)C(C)C(O)C(C)C(OC(C)=O)C1C` (centres unmarked) [(f), 4-deoxo-N,3-ethylidenimino-4-(methylsulfonyl)amino rifamycin SV], the inhibition at 0.01 µg/mL was determined as 23.8%, the inhibition at 0.1 µg/mL is 84.6% and the “inhibition of the polymerase of hepatitis B virus (in words)” value (from here on “inhibition of the polymerase … (in words)”) is “inhibit the polymerase of hepatitis B virus”.
For the compound `CCCCS(=O)(=O)Oc1c(C=NN2CCCCC2)c2c(O)c3c(O)c(C)c4c(c13)C(=O)[C@@](C)(O/C=C/[C@H](OC)[C@@H](C)[C@@H](OC(C)=O)[C@H](C)[C@H](O)[C@H](C)[C@@H](O)[C@@H](C)/C=C/C=C(/C)C(=O)N2)O4` [(c), 4-O-(n-butylsulfonyl)-3-[(1-piperidinylimino)methyl]-rifamycin SV], the inhibition at 0.01 µg/mL amounted to 8.3%, the inhibition at 0.1 µg/mL was found to be 55.7% and the “inhibition of the polymerase … (in words)” value is on record as “inhibit the polymerase of hepatitis B virus”.
`CO[C@H]1/C=C/O[C@@]2(C)Oc3c(C)c(O)c4c(c3C2=O)C(=N)C(N)=C(NC(=O)/C(C)=C\C=C\[C@H](C)[C@H](O)[C@@H](C)[C@@H](O)[C@@H](C)[C@H](OC(C)=O)[C@@H]1C)C4=O` [(a), 3-amino-4-deoxo-4-imino-rifamycin S]: the inhibition at 0.01 µg/mL worked out at 17.2% and the inhibition at 0.1 µg/mL was found to be 54.1%.
On to `CO[C@H]1/C=C/O[C@@]2(C)Oc3c(C)c(O)c4c(O)c(c(C=NN(C)C)c(OS(=O)(=O)CCCc5ccccc5)c4c3C2=O)NC(=O)/C(C)=C\C=C\[C@H](C)[C@H](O)[C@@H](C)[C@@H](O)[C@@H](C)[C@H](OC(C)=O)[C@@H]1C` [(e), 3-[(dimethylhydrazono)methyl]-4-O-[(3-phenylpropyl)sulfonyl]-rifamycin SV], for which the inhibition at 0.01 µg/mL was 25.1%, the inhibition at 0.1 µg/mL was 85.6% and the “inhibition of the polymerase … (in words)” value was “inhibit the polymerase of hepatitis B virus”.
Consider `CCCCS(=O)(=O)Oc1c(C=NN2CCOCC2)c2c(O)c3c(O)c(C)c4c(c13)C(=O)[C@@](C)(O/C=C/[C@H](OC)[C@@H](C)[C@@H](OC(C)=O)[C@H](C)[C@H](O)[C@H](C)[C@@H](O)[C@@H](C)/C=C/C=C(/C)C(=O)N2)O4` [(d), 4-O-(n-butylsulfonyl)-3-[(4-morpholinylimino)methyl]-rifamycin SV], for which the inhibition at 0.01 µg/mL stood at 10.2%, the inhibition at 0.1 µg/mL was 92.5% and the “inhibition of the polymerase … (in words)” value was “inhibit the polymerase of hepatitis B virus”.
With `CO[C@H]1/C=C/O[C@@]2(C)Oc3c(C)c(O)c4c(O)c(c(N)c(NS(=O)(=O)c5ccc(N)cc5)c4c3C2=O)NC(=O)/C(C)=C\C=C\[C@H](C)[C@H](O)[C@@H](C)[C@@H](O)[C@@H](C)[C@H](OC(C)=O)[C@@H]1C` [(b), 3-amino-4-deoxo-4-[(4-aminophenyl)sulfonyl]amino-rifamycin SV], the inhibition at 0.01 µg/mL worked out at 10%, the inhibition at 0.1 µg/mL stood at 89% and the “inhibition of the polymerase … (in words)” value is “inhibit the polymerase of hepatitis B virus”.
